Structures can show the parent of a compound that is named as a salt. Where two headings read alike, the source gives them in different places.
What was measured:
[1] = target: T1, SARS-CoV-2 PLpro (nsp3 1564–1878) (Severe acute respiratory syndrome coronavirus 2, UniProt P0DTD1); assay: biochemical; design: FRET-quenched peptide (Pro3) cleavage by PLpro, 10 min pre-incubation, slope over 20 min, normalised to no-compound control; conditions: low concentration screen, read-out: % of control remaining
[2] = target: T1, SARS-CoV-2 PLpro (nsp3 1564–1878); assay: biochemical; design: FRET-quenched peptide (Pro3) cleavage by PLpro, 10 min pre-incubation, slope over 20 min, normalised to no-compound control; conditions: high concentration screen, read-out: % of control remaining

For Nc1ccn([C@H]2CC[C@@H](CO)O2)c(=O)n1 [2',3'-dideoxycytidine], the remaining activity at 1.25 µM ([1]; Well no.=549) was 98.3% and the remaining activity at 3.75 µM ([2]; Well no.=549) was 96.6%.

In the case of Nc1ncnc2c1ncn2[C@H]1C[C@H](O)[C@@H](CO)O1 [2'-Deoxyadenosine monohydrate], the remaining activity at 1.25 µM ([1]; Well no.=8885) is reported as 95.3% and the remaining activity at 3.75 µM ([2]; Well no.=8885) is reported as 90.7%.

Nc1ncnc2c1ncn2[C@H]1C[C@H](O)[C@@H](CO)O1 [2'-Deoxyadenosine] showed a remaining activity at 1.25 µM ([1]; Well no.=6691) of 106%, a remaining activity at 1.25 µM ([1]; Well no.=7722) of 95.5% and a remaining activity at 3.75 µM ([2]; Well no.=6691) of 105%. For the same molecule, the remaining activity at 3.75 µM ([2]; Well no.=7722) was 101%.

Work on Nc1ccn([C@H]2C[C@H](O)[C@@H](CO)O2)c(=O)n1 [2'-Deoxycytidine (hydrochloride)] yielded a remaining activity at 1.25 µM ([1]; Well no.=7806) of 105% and a remaining activity at 3.75 µM ([2]; Well no.=7806) of 109%.

In the case of Nc1ccn([C@H]2C[C@H](O)[C@@H](CO)O2)c(=O)n1 [2'-Deoxycytidine], the remaining activity at 1.25 µM ([1]; Well no.=7451) is reported as 93.9%, the remaining activity at 1.25 µM ([1]; Well no.=7760) is reported as 96.4% and the remaining activity at 3.75 µM ([2]; Well no.=7451) is reported as 93.7%. The remaining activity at 3.75 µM ([2]; Well no.=7760) was 98.4%.

In the case of Nc1nc2c(ncn2[C@H]2C[C@H](O)[C@@H](CO)O2)c(=O)[nH]1 [2'-Deoxyguanosine], the remaining activity at 1.25 µM ([1]; Well no.=6209) is reported as 102%, the remaining activity at 1.25 µM ([1]; Well no.=7772) is reported as 99.2% and the remaining activity at 3.75 µM ([2]; Well no.=6209) is reported as 97.7%. It also gave a remaining activity at 3.75 µM ([2]; Well no.=7772) of 101%.

In the case of O=c1[nH]cnc2c1ncn2[C@H]1C[C@H](O)[C@@H](CO)O1 [2'-Deoxyinosine], the remaining activity at 1.25 µM ([1]; Well no.=7497) is reported as 106%, the remaining activity at 1.25 µM ([1]; Well no.=7712) is reported as 95% and the remaining activity at 3.75 µM ([2]; Well no.=7497) is reported as 105%. It also gave a remaining activity at 3.75 µM ([2]; Well no.=7712) of 96.3%.

For O=c1ccn([C@H]2C[C@H](O)[C@@H](CO)O2)c(=O)[nH]1 [2'-Deoxyuridine], the remaining activity at 1.25 µM ([1]; Well no.=6627) was 107%, the remaining activity at 1.25 µM ([1]; Well no.=8893) was 103% and the remaining activity at 3.75 µM ([2]; Well no.=6627) was 102%. For the same molecule, the remaining activity at 3.75 µM ([2]; Well no.=8893) was 103%.

c1ccc(-c2ccccn2)nc1 [2,2'-Bipyridyl] showed a remaining activity at 1.25 µM ([1]; Well no.=724) of 96.8% and a remaining activity at 3.75 µM ([2]; Well no.=724) of 95.8%.

In the case of O=C(Nc1ccc(S(=O)(=O)Nc2nccs2)cc1)C(c1ccccc1)c1ccccc1 [2,2-diphenyl-N-{4-[(1,3-thiazol-2-ylamino)sulfonyl]phenyl}acetamide], the remaining activity at 1.25 µM ([1]; Well no.=5558) is reported as 92.9% and the remaining activity at 3.75 µM ([2]; Well no.=5558) is reported as 96.4%.

CC(=O)/C(C)=N/O [2,3-Butanedione monoxime] showed a remaining activity at 1.25 µM ([1]; Well no.=22) of 103% and a remaining activity at 3.75 µM ([2]; Well no.=22) of 105%.

CC(=O)C(C)=O [2,3-Butanedione] gave a remaining activity at 1.25 µM ([1]; Well no.=687) of 98.3% and a remaining activity at 3.75 µM ([2]; Well no.=687) of 97.2%.

Work on COC1=C(OC)C(=O)c2ccccc2C1=O [2,3-Dimethoxy-1,4-naphthoquinone] yielded a remaining activity at 1.25 µM ([1]; Well no.=739) of 98% and a remaining activity at 3.75 µM ([2]; Well no.=739) of 96.9%.

For CCCCC[C@H](O)/C=C/[C@@H]1[C@@H](CC(=O)CCC(=O)O)[C@@H](O)C[C@@H]1O [2,3-Dinor-6-keto-prostaglandin F1a], the remaining activity at 1.25 µM ([1]; Well no.=4527) was 93.5% and the remaining activity at 3.75 µM ([2]; Well no.=4527) was 97.9%.

With COc1cc2c[n+](C)c3c4cc5c(cc4ccc3c2cc1OC)OCO5 [2,3-dimethoxy-12-methyl[1,3]benzodioxolo[5,6-c]phenanthridin-12-ium chloride] the remaining activity at 1.25 µM ([1]; Well no.=5862) was 100% and the remaining activity at 3.75 µM ([2]; Well no.=5862) was 98.5%.

With O=C(O)c1ccc(O)cc1O [2,4-Dihydroxybenzoic acid] the remaining activity at 1.25 µM ([1]; Well no.=6781) was 102% and the remaining activity at 3.75 µM ([2]; Well no.=6781) was 101%.

Molecule O=[N+]([O-])c1ccc(O[C@@H]2O[C@H](CO)[C@@H](O)[C@H](O)[C@H]2F)c([N+](=O)[O-])c1 [2,4-Dinitrophenyl 2-fluoro-2-deoxy-beta-D-glucopyranoside] has a remaining activity at 1.25 µM ([1]; Well no.=637) of 100% and a remaining activity at 3.75 µM ([2]; Well no.=637) of 101%.

COC(=O)/C=C/c1cc(O)ccc1O [2,5-Dihydroxycinnamic acid methyl ester] gave a remaining activity at 1.25 µM ([1]; Well no.=495) of 103% and a remaining activity at 3.75 µM ([2]; Well no.=495) of 106%.

For O=C(O)c1ccc(C(=O)O)o1 [2,5-Furandicarboxylic acid], the remaining activity at 1.25 µM ([1]; Well no.=7461) was 98% and the remaining activity at 3.75 µM ([2]; Well no.=7461) was 91.7%.

In the case of Nc1cc(=O)[nH]c(N)n1 [2,6-Diamino-4-pyrimidinone], the remaining activity at 1.25 µM ([1]; Well no.=452) is reported as 104% and the remaining activity at 3.75 µM ([2]; Well no.=452) is reported as 99.9%.

O=C(O)c1c(O)cccc1O [2,6-Dihydroxybenzoic acid] showed a remaining activity at 1.25 µM ([1]; Well no.=6921) of 108% and a remaining activity at 3.75 µM ([2]; Well no.=6921) of 105%.

N=C(N)SCCN [2-(2-Aminoethyl)isothiourea dihydrobromide] gave a remaining activity at 1.25 µM ([1]; Well no.=353) of 96.2% and a remaining activity at 3.75 µM ([2]; Well no.=353) of 97.5%.

For Cc1ccccc1C(=O)NCC(=O)O [2-(2-Methylbenzamido)acetic acid], the remaining activity at 1.25 µM ([1]; Well no.=6725) was 103% and the remaining activity at 3.75 µM ([2]; Well no.=6725) was 104%.

For Fc1ccc(-c2c3cccc(C(F)(F)F)c3nn2Cc2ccc(F)cc2Cl)cc1 [2-(2-chloro-4-fluorobenzyl)-3-(4-fluorophenyl)-7-(trifluoromethyl)-2H-indazole], the remaining activity at 1.25 µM ([1]; Well no.=6061) was 93.7% and the remaining activity at 3.75 µM ([2]; Well no.=6061) was 94.4%.

COc1cc2oc(-c3ccc(O)c(O)c3)cc(=O)c2c(O)c1OC [2-(3,4-dihydroxyphenyl)-5-hydroxy-6,7-dimethoxy-4H-chromen-4-one] showed a remaining activity at 1.25 µM ([1]; Well no.=5979) of 97% and a remaining activity at 3.75 µM ([2]; Well no.=5979) of 93.4%.

For COc1ccc(N2C(=O)CSC2c2cccc(Br)c2)c(OC)c1 (centres unmarked) [2-(3-bromophenyl)-3-(2,4-dimethoxyphenyl)-1,3-thiazolidin-4-one], the remaining activity at 1.25 µM ([1]; Well no.=6016) was 101% and the remaining activity at 3.75 µM ([2]; Well no.=6016) was 98.8%.

With COc1ccc(CC(=O)O)cc1 [2-(4-Methoxyphenyl)acetic acid] the remaining activity at 1.25 µM ([1]; Well no.=6451) was 100% and the remaining activity at 3.75 µM ([2]; Well no.=6451) was 104%.

Work on O=C(COc1ccc(C(=O)c2ccccc2)cc1)NC1CCN(Cc2ccccc2)CC1 [2-(4-benzoylphenoxy)-N-(1-benzyl-4-piperidinyl)acetamide] yielded a remaining activity at 1.25 µM ([1]; Well no.=5650) of 101% and a remaining activity at 3.75 µM ([2]; Well no.=5650) of 98.9%.

CC(=O)NCCOC(=O)[C@H](Oc1cccc(C(F)(F)F)c1)c1ccc(Cl)cc1 [2-(acetylamino)ethyl (2R)-(4-chlorophenyl)[3-(trifluoromethyl)phenoxy]ethanoate] showed a remaining activity at 1.25 µM ([1]; Well no.=6055) of 100% and a remaining activity at 3.75 µM ([2]; Well no.=6055) of 97.1%.

C[N+](C)(C)CCC(=O)c1cccc2ccccc12 [2-(alpha-Naphthoyl)ethyltrimethylammonium iodide] showed a remaining activity at 1.25 µM ([1]; Well no.=1051) of 96.5% and a remaining activity at 3.75 µM ([2]; Well no.=1051) of 103%.

For NCC(O)c1ccccc1 (centres unmarked) [2-Amino-1-phenylethanol], the remaining activity at 1.25 µM ([1]; Well no.=7217) was 95.5% and the remaining activity at 3.75 µM ([2]; Well no.=7217) was 96.7%.

For CCCCC/C=C\C/C=C\C/C=C\C/C=C\CCCC(=O)OC(CO)CO [2-Arachidonoylglycerol], the remaining activity at 1.25 µM ([1]; Well no.=4505) was 94.8% and the remaining activity at 3.75 µM ([2]; Well no.=4505) was 88.7%.

From paper PMC8286840, “Identifying SARS-CoV-2 antiviral compounds by screening for small molecule inhibitors of Nsp3 papain-like protease” (Biochemical Journal, 2021)
